Assay [1] deals with facial skin. Description: Visual observation of the appearance of wrinkles in treated areas. It counts as in vivo, human. The note with it: cream with 0.15% retinol applied daily, vehicle cream alone had no effect.
Assay [2] has as its system facial skin. The assay is described as follows: In vivo facial skin fluorescence after daily topical retinol cream versus vehicle. The note with it: cheek. Set-up: species or system human. An excerpt:
In vivo fluorescence spectroscopy can be performed for example using a fiber optic probe attached to a spectrofluorimeter (e.g. the model SkinSkan (J Y Horiba, Edison, N.J.)). The method requires: a) a UV radiation source (e.g., a Xenon arc lamp or a mercury lamp), b) a method of selecting the radiation wavelength (e.g. a monochromator, a prism, or a grating), c) a method of delivery of the radiation to the tissue (e.g. a fiber bundle), d) a method of collection of the emitted radiation from the tissue (e.g. a fiber bundle), e) a method of selecting the emitted radiation wavelength (e.g. a monochromator, a prism, or a grating), and f) a method of detecting the emitted radiation (e.g. a photomultiplier, a single photodiode, a photodiode array, or a CCD array). See, e.g., Stamatas G N, et al., J Invest Dermatol 118(2):295-302, 2002.
Measurements were preformed by placing the fiber optic probe in contact with the skin site of interest. Before each set of measurements, the instrument was spectrally calibrated for excitation and emission in the region 250-650 nm. […]
Acquisition of excitation spectra was the preferred method of measuring in vivo skin fluorescence. […]
In order to account for variations in skin native pigmentation that attenuates the detected fluorescence signal, fluorescence intensity was normalized with the diffuse reflectance signal of the same skin site at the corresponding wavelength. […] The measured fluorescence in this wavelength region arises from the dermis (Gillies et al, 2000, Kollias et al, 1998), which means that excitation light has to travel through the whole epidermis where it is attenuated by epidermal melanin and proteins, both of which absorb strongly in the UV. […] Furthermore, the intensity of the light source is low below 300 nm and normalization of the fluorescence by the diffuse reflectance signal in this wavelength range amplified the noise. […] To overcome this problem, the tryptophan fluorescence signal may be normalized to another fluorescence band, rather than to the diffuse reflectance value at 295 nm. […]

As for `CC1=C(/C=C/C(C)=C/C=C/C(C)=C/CO)C(C)(C)CCC1` [retinol], the “appearance of wrinkles (visual observations)” value in assay [1] is recorded as “reduction in the appearance of wrinkles”. For the same compound, the “rate of decrease in the 295 nm band fluorescence” value in assay [2] (cream with 0.15% retinol and SPF 15 sunscreen applied daily, measured at baseline, 3 and 6 months, placebo −0.04 units/month) was −0.01 units/month. Besides, the “change of the 390 nm band fluorescence over the period of the study” value in assay [2] (cream with 0.15% retinol applied daily, 6 months) is “did not significantly change”. For the same compound, the “normalized tryptophan fluorescence values (I295nm/I390nm) over time” value in assay [2] (cream with 0.15% retinol applied daily, 6 months, p<0.05 versus vehicle (−0.062±0.029 ratio units per month)) is “remained virtually constant”.

The record behind these values is US9750449B2, “Method of assessing skin” (Johnson & Johnson Consumer Inc., priority 2003, dated 2017).
